# PubChem BioAssay AID493126 (Sanford-Burnham Center for Chemical Genomics, 2011)
# Active and inactive are the calls of the source. No rule for the calls is given here.
# Biological target: Alkaline phosphatase, germ cell type (Homo sapiens) (UniProt P10696)
# Experiment: PLAP enzyme activity modulators, SAR follow-up, selectivity assay for human IAP activator project, biochemical (AID 493126)
# Details: purified PLAP enzyme, counter-screen
# Alkaline phosphatase, germ cell type (Homo sapiens), sequence (P10696 whole entry, looked up): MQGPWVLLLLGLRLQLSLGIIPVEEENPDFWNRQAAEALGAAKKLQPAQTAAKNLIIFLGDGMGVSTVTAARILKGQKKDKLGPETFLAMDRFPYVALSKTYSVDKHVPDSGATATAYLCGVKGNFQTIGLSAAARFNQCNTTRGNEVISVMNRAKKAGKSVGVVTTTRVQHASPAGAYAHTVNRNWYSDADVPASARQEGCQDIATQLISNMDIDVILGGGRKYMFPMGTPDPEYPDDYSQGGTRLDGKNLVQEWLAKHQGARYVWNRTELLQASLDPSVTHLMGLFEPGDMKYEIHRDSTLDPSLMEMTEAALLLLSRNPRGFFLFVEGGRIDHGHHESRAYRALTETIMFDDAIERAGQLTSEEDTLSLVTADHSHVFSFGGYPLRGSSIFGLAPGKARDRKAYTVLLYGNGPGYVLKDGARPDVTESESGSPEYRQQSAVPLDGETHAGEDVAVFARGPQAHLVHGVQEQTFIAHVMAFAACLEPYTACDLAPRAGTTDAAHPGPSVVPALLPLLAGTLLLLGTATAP
row,SMILES,IC50 (inhibition of PLAP activity)
1,O=C(N/N=C/c1ccccc1O)c1cc(C2CC2)[nH]n1,8.62 µM
2,O=C(N/N=C/c1cc(Br)ccc1O)c1cc(C2CC2)[nH]n1,11.5 µM
3,CC(=O)Nc1cccc(C(=O)NNC(=O)c2n[nH]c(=O)c3ccccc23)c1,10.2 µM
4,O=C(CCN1C(=O)/C(=C/c2ccccc2Cl)SC1=S)NNC(=O)c1ccccc1O,23.7 µM
5,CC(C)C(=O)NC(=S)Nc1ccccc1C(=O)Nc1ccccc1,9.56 µM
6,CCOc1cccc(C=NNC(=O)c2cc(C3CC3)[nH]n2)c1O,7.02 µM
7,Cc1cc(C(=O)NN=Cc2cc(Cl)cc([N+](=O)[O-])c2O)n[nH]1,> 100 µM (inactive)
8,O=C1Nc2ccc(Br)cc2C12NNc1ccccc1O2 (stereo unspecified),0.87 µM
9,OC(c1nc2ccc(F)cc2[nH]1)C(O)c1nc2ccc(F)cc2[nH]1 (stereo unspecified),6.83 µM
10,COc1ccc(-c2cc(C(=O)NN=Cc3c(O)ccc4ccccc34)[nH]n2)cc1,> 100 µM (inactive)
11,COc1cc(OC)cc(C(=O)NNC(=O)c2nn(C)c(=O)c3ccccc23)c1,9.49 µM
12,C/C(=N\NC(=O)c1cc(C)[nH]n1)c1ccc2ccccc2c1O,8.16 µM
13,COc1cccc(C=NNC(=O)C2=NNC(=O)C2C)c1O (stereo unspecified),8.02 µM
14,O=C(NC(=S)NNC(=O)c1ccccc1O)c1ccc(F)cc1,11 µM
15,COc1cccc(C=NNC(=O)c2[nH]nc3c2CCc2ccccc2-3)c1O,12.1 µM
16,COc1cccc(C=NNC(=O)c2cc(-c3cccn3C)n[nH]2)c1O,8.67 µM
17,C/C(=N\NC(=O)c1[nH]nc2c1CCc1ccccc1-2)c1ccccc1O,7.57 µM
18,Cc1ccc(O)c(C=NNC(=O)c2[nH]ncc2Br)c1,14.6 µM
19,O=C(NN=Cc1c(O)ccc2ccccc12)c1[nH]ncc1Br,> 100 µM (inactive)
20,Cc1cc(C(=O)N/N=C\c2cc(C(C)(C)C)ccc2O)n[nH]1,7.02 µM
21,Cc1cc(C(=O)N/N=C/c2cc(Br)ccc2O)n[nH]1,10.3 µM
22,O=C(NNC(=S)NC(=O)c1ccccc1[N+](=O)[O-])c1ccccc1O,15 µM
23,O=C(N/N=C/c1ccccc1O)c1n[nH]c2c1CCC2,8.33 µM
24,O=C(N/N=C/c1c(O)ccc2ccccc12)c1cc(-c2cccs2)[nH]n1,31.8 µM
25,CCOc1cccc(C=NNC(=O)c2cc(-c3cccn3C)n[nH]2)c1O,9.86 µM
26,COc1ccc(-c2csc(Nc3cccc4ccccc34)n2)cc1F,> 100 µM (inactive)
27,Cc1cc(C(=O)NN=Cc2cccc([N+](=O)[O-])c2O)n[nH]1,> 100 µM (inactive)

# Second part, the molecule after the results:
row,IC50 (inhibition of PLAP activity),SMILES
1,> 100 µM (inactive),CCOc1cc(/C=N/NC(=O)C(=O)N/N=C/c2ccc(O)c(OCC)c2)ccc1O
2,10.3 µM,CC1C(=O)NN=C1C(=O)NN=Cc1ccc(O)cc1O (stereo unspecified)
3,> 100 µM (inactive),COc1cc(OC)c(OC)cc1/C=N/NC(=O)C(=O)N/N=C/c1cc(OC)c(OC)cc1OC
4,46.8 µM,COc1cc(/C=N/NC(=O)C(=O)N/N=C/c2ccc(O)c(OC)c2)ccc1O
5,> 100 µM (inactive),CC(=O)Nc1ccc(/C=N/NC(=O)C(=O)N/N=C/c2ccc(NC(C)=O)cc2)cc1
6,> 100 µM (inactive),O=C(N/N=C/c1ccc(O)cc1)C(=O)N/N=C/c1ccc(O)cc1
7,> 100 µM (inactive),COc1cc(/C=N/NC(=O)C(=O)N/N=C/c2cc(OC)c(OC)c(OC)c2)cc(OC)c1OC
8,> 100 µM (inactive),CC(=NNC(=O)C(=O)NN=C(C)c1cccc(O)c1)c1cccc(O)c1
9,32.9 µM,O=C(NN=Cc1ccccc1)C(=O)NN=Cc1ccccc1
10,> 100 µM (inactive),O=C(N/N=C/c1cc(Br)ccc1O)C(=O)N/N=C/c1cc(Br)ccc1O
11,8.61 µM,COc1cccc(C=NNC(=O)C(=O)NN=Cc2cccc(OC)c2O)c1O
12,> 100 µM (inactive),O=C(NN=Cc1ccc(O)cc1O)C(=O)NN=Cc1ccc(O)cc1O
13,> 100 µM (inactive),COc1cc(/C=N\NC(=O)C(=O)N/N=C/c2cc(OC)c(O)c(OC)c2)cc(OC)c1O
14,> 100 µM (inactive),O=C(N/N=C\c1ccc2c(c1)OCO2)C(=O)N/N=C/c1ccc2c(c1)OCO2
15,56.1 µM,O=C(N/N=C\c1cccc(O)c1)C(=O)N/N=C/c1cccc(O)c1
16,> 100 µM (inactive),CCCCOc1ccc(/C=N/NC(=O)C(=O)N/N=C/c2ccc(OCCCC)cc2)cc1
17,> 100 µM (inactive),O=C(N/N=C/c1ccc2c(c1)OCO2)C(=O)N/N=C/c1ccc2c(c1)OCO2
18,> 100 µM (inactive),COc1ccc(/C=N/NC(=O)C(=O)N/N=C/c2ccc(OC)c(OC)c2)cc1OC
19,58.1 µM,O=C(N/N=C/c1ccccc1C(=O)O)C(=O)N/N=C/c1ccccc1C(=O)O
20,52.3 µM,CC(C)Oc1ccccc1/C=N/NC(=O)C(=O)N/N=C/c1ccccc1OC(C)C
21,> 100 µM (inactive),CCN(CC)c1ccc(/C=N/NC(=O)C(=O)N/N=C/c2ccc(N(CC)CC)cc2O)c(O)c1
22,> 100 µM (inactive),COC(=O)c1ccc(/C=N/NC(=O)C(=O)N/N=C/c2ccc(C(=O)OC)cc2)cc1
23,> 100 µM (inactive),CN(C)c1ccc(/C=N/NC(=O)C(=O)N/N=C/c2ccc(N(C)C)cc2)cc1
24,> 100 µM (inactive),N#CCOc1ccccc1/C=N/NC(=O)C(=O)N/N=C/c1ccccc1OCC#N
25,53.2 µM,COc1ccc(OC)c(/C=N/NC(=O)C(=O)N/N=C/c2cc(OC)ccc2OC)c1
26,> 100 µM (inactive),O=C(N/N=C/c1c(O)ccc2ccccc12)C(=O)N/N=C/c1c(O)ccc2ccccc12
27,9.66 µM,Cn1cccc1-c1cc(C(=O)NN=Cc2cc(Br)ccc2O)[nH]n1
28,28.7 µM,COc1cccc(C=NNC(=O)C(=O)NN=Cc2cccc(OC)c2OC)c1OC
29,6.41 µM,Cc1ccc(-c2cc(C(=O)NN=Cc3ccccc3O)n[nH]2)o1
